# Calls of active or inactive are those of the source. No cut-off for these calls is given here.
# Assays:
# Aspergillus flavus [1] = experiment: Antifungal activity against Aspergillus flavus by measuring inhibition zone after 48 hrs; format: functional
# Aspergillus flavus [2] = experiment: Antifungal activity against Aspergillus flavus after 48 hrs; format: functional
# [3] = system: Trichophyton mentagrophytes; experiment: Antifungal activity against Trichophyton mentagrophytes by measuring inhibition zone after 48 hrs; format: functional
# [4] = system: Trichophyton mentagrophytes; experiment: Antifungal activity against Trichophyton mentagrophytes after 48 hrs; format: functional
# Talaromyces marneffei [5] = experiment: Antifungal activity against Penicillium marneffei by measuring inhibition zone after 48 hrs; format: functional
# Talaromyces marneffei [6] = experiment: Antifungal activity against Penicillium marneffei after 48 hrs; format: functional
# Candida albicans [7] = experiment: Antifungal activity against Candida albicans by measuring inhibition zone after 48 hrs; format: functional
# Candida albicans [8] = experiment: Antifungal activity against Candida albicans after 48 hrs; format: functional
# Aspergillus fumigatus [9] = experiment: Antifungal activity against Aspergillus fumigatus by measuring inhibition zone after 48 hrs; format: functional
# Aspergillus fumigatus [10] = experiment: Antifungal activity against Aspergillus fumigatus after 48 hrs; format: functional
# Staphylococcus aureus [11] = experiment: Antibacterial activity against Staphylococcus aureus after 24 hrs by broth dilution method; format: functional
# Escherichia coli [12] = experiment: Antibacterial activity against Escherichia coli after 24 hrs by broth dilution method; format: functional
# Aspergillus flavus [13] = experiment: Antifungal activity against Aspergillus flavus at >100 ug/mL after 48 hrs; format: functional, organism-based
# Pseudomonas aeruginosa [14] = experiment: Antibacterial activity against Pseudomonas aeruginosa after 24 hrs by broth dilution method; format: functional
# Streptococcus pyogenes [15] = experiment: Antibacterial activity against Streptococcus pyogenes after 24 hrs by broth dilution method; format: functional
# Klebsiella pneumoniae [16] = experiment: Antibacterial activity against Klebsiella pneumoniae at >100 ug/mL after 24 hrs by broth dilution method; format: functional, organism-based
# Staphylococcus aureus [17] = experiment: Antibacterial activity against Staphylococcus aureus after 24 hrs; format: functional
# Escherichia coli [18] = experiment: Antibacterial activity against Escherichia coli after 24 hrs; format: functional
# Pseudomonas aeruginosa [19] = experiment: Antibacterial activity against Pseudomonas aeruginosa after 24 hrs; format: functional
# Streptococcus pyogenes [20] = experiment: Antibacterial activity against Streptococcus pyogenes after 24 hrs; format: functional
# Pseudomonas aeruginosa [21] = experiment: Antibacterial activity against Pseudomonas aeruginosa at >100 ug/mL after 24 hrs by broth dilution method; format: functional, organism-based
# Klebsiella pneumoniae [22] = experiment: Antibacterial activity against Klebsiella pneumoniae after 24 hrs by broth dilution method; format: functional
# Klebsiella pneumoniae [23] = experiment: Antibacterial activity against Klebsiella pneumoniae after 24 hrs; format: functional
MIC (Aspergillus flavus [2]) [µg/mL],MIC [4] [µg/mL],MIC (Talaromyces marneffei [6]) [µg/mL],MIC (Candida albicans [8]) [µg/mL],MIC (Aspergillus fumigatus [10]) [µg/mL],MIC (Staphylococcus aureus [11]) [µg/mL],MIC (Escherichia coli [12]) [µg/mL],MIC (Pseudomonas aeruginosa [14]) [µg/mL],MIC (Streptococcus pyogenes [15]) [µg/mL],MIC (Klebsiella pneumoniae [22]) [µg/mL],SMILES,inhibition zone (IZ) (Aspergillus flavus [1]) [mm],inhibition zone (IZ) [3] [mm],inhibition zone (IZ) (Talaromyces marneffei [5]) [mm],inhibition zone (IZ) (Candida albicans [7]) [mm],inhibition zone (IZ) (Aspergillus fumigatus [9]) [mm],inhibition zone (IZ) (Staphylococcus aureus [17]) [mm],inhibition zone (IZ) (Escherichia coli [18]) [mm],inhibition zone (IZ) (Pseudomonas aeruginosa [19]) [mm],inhibition zone (IZ) (Streptococcus pyogenes [20]) [mm],inhibition zone (IZ) (Klebsiella pneumoniae [23]) [mm],further results
,25,6.25,6.25,6.25,25,6.25,25,25,,O=c1c(Cc2ccc(Cl)cc2)nnc2scc(-c3ccc([N+](=O)[O-])cc3)n12,,7,21,18,15,9,25,8,9,,inhibition (Aspergillus flavus [13]): inactive; inhibition (Klebsiella pneumoniae [16]): inactive
6.25,6.25,6.25,6.25,6.25,6.25,6.25,6.25,6.25,6.25,O=c1c(Cc2ccc(Cl)cc2)nnc2scc(-c3ccc(Cl)cc3)n12,22,25,22,20,22,23,26,33,23,20,

# Second part, the molecule before the results:
SMILES,MIC (Aspergillus flavus [2]) [µg/mL],MIC [4] [µg/mL],MIC (Talaromyces marneffei [6]) [µg/mL],MIC (Candida albicans [8]) [µg/mL],MIC (Aspergillus fumigatus [10]) [µg/mL],MIC (Staphylococcus aureus [11]) [µg/mL],MIC (Escherichia coli [12]) [µg/mL],MIC (Pseudomonas aeruginosa [14]) [µg/mL],MIC (Streptococcus pyogenes [15]) [µg/mL],MIC (Klebsiella pneumoniae [22]) [µg/mL],inhibition zone (IZ) (Aspergillus flavus [1]) [mm],inhibition zone (IZ) [3] [mm],inhibition zone (IZ) (Talaromyces marneffei [5]) [mm],inhibition zone (IZ) (Candida albicans [7]) [mm],inhibition zone (IZ) (Aspergillus fumigatus [9]) [mm],inhibition zone (IZ) (Staphylococcus aureus [17]) [mm],inhibition zone (IZ) (Escherichia coli [18]) [mm],inhibition zone (IZ) (Pseudomonas aeruginosa [19]) [mm],inhibition zone (IZ) (Streptococcus pyogenes [20]) [mm],inhibition zone (IZ) (Klebsiella pneumoniae [23]) [mm],further results
C[C@@H]1[C@H](O)[C@@H](C)/C=C/C=C/C=C/C=C/C=C/C=C/C=C/[C@H](O[C@@H]2O[C@H](C)[C@@H](O)[C@H](N)[C@@H]2O)C[C@@H]2O[C@](O)(C[C@@H](O)C[C@@H](O)[C@H](O)CC[C@@H](O)C[C@@H](O)CC(=O)O[C@H]1C)C[C@H](O)[C@H]2C(=O)O [AMPHOTERICIN B],6.25,6.25,6.25,6.25,6.25,,,,,,21,23,25,19,25,,,,,,
COc1ccc(-c2csc3nnc(Cc4ccc(Cl)cc4Cl)c(=O)n23)cc1,,6.25,25,6.25,6.25,12.5,6.25,,25,,,17,9,17,20,12,22,,8,,inhibition (Aspergillus flavus [13]): inactive; inhibition (Pseudomonas aeruginosa [21]): inactive; inhibition (Klebsiella pneumoniae [16]): inactive
O=c1c(Cc2ccc(Cl)cc2Cl)nnc2scc(-c3cc(F)c(Cl)cc3Cl)n12,6.25,6.25,6.25,6.25,6.25,6.25,6.25,6.25,6.25,6.25,21,22,25,20,24,21,29,31,24,19,
O=c1c(Cc2ccc(Cl)cc2Cl)nnc2scc(-c3ccc(Cl)cc3)n12,6.25,6.25,6.25,6.25,6.25,6.25,6.25,6.25,6.25,6.25,21,21,23,18,24,21,29,32,23,19,

# From ChEMBL document CHEMBL1275296, “Synthesis and antimicrobial studies of thiazolotriazinones” (2010)
